Experimental data published in EP2742955A1, “Nanoparticles based on bioconjugate of GAG” (Centre National de la Recherche Scientifique, priority 2012, dated 2014).

Key:
[1] = Permeation of Fpx across fresh intestinal tissue in Ussing-type chambers; format: in vitro ADME, male Sprague Dawley rats
Description: The permeation of Fpx in solution was investigated through the intestinal epithelium at 37°C, in the two directions (mucosal-to-serosal, M-S, absorptive direction and serosal-to-mucosal, S-M, secretory direction) and in presence or not of verapamil, an inhibitor of P-gp (P-glycoprotein) (Fig. 3).
Ussing-type chambers were used to evaluate the permeation of Fpx in fresh intestinal tissues, under the free form and loaded in NPs. For permeation studies non fasting male Sprague Dawley rats weighting 250 to 300 g were used. After sacrificing the rats, jejunum from fresh small intestine was excised and rinsed with chilled physiological solution (isotonic Sorensen's Phosphate buffer solution: 0.2 mM Na2HPO4; 0.2 mM NaH2PO4, H2O with a pH of 6.8). The excised intestine was cut into segments of 2 - 3 cm length and mounted in Ussing chamber (0.75 cm^2 surface area) bathed with Sorensen buffer pH 6.8 in mucosal and serosal sides. The system was maintained at 37°C and continuously oxygenated with O2/CO2 (95% /5%). After equilibration at the temperature of the experiment (15 min), Fpx in solution or loaded in NPs at the concentration of 2 mg/mL were added to the donor compartment. For this purpose, 1.2 mL of Fpx:Sq^+ NPs (at Fpx concentration of 5 mg/mL were diluted in 1.8 mL of Sorensen buffer pH 6.8 prior to the addition to the donor chamber. After 0, 30, 60, 90, 120, 150 and 180 min, 500 µL samples were taken out from the acceptor chambers and replaced with the same volume of fresh transport medium pre-equilibrated at 37°C. The samples were stored at 4°C until analysis. Fpx was quantified by the Azure A assay and Anti-Xa assay. The influence of verapamil was investigated on the intestinal permeation of Fpx in solution and loaded in NPs. For this purpose, verapamil was added to the Sorensen buffer at the concentration of 0.1 mM in the serosal compartment five minutes before the experiment.
Thus, figure 3 is a diagram showing a comparison of the permeation of Fpx across the intestinal tissue under the following experimental conditions: mucosal-to-serosal direction (M-S, continuous lines); serosal-to-mucosal direction (S-M, broken line) and in presence (open symbols) or in absence (filled symbols) of verapamil. Donor chambers contained initially 2 mg/mL of Fpx. Data represent means ± SEM of at least six independent experiments.
Donor chambers contained 2 mg/mL of Fpx and Sq^+ in molar ratio Fpx to Sq^+ 1:6. Data represent means ± SEM of at least six independent experiments.
At last, figure 5 represents a diagram showing net fluxes of Fpx in free form or in Fpx:Sq+ NPs in the presence or in the absence of verapamil when added in serosal side at 180 min. Values are indicated as means SEM at least six experiments. (** p< 0.05) Fpx:Sq^+ NPs vs Fpx:Sq NPs + verapamil; (* p< 0.05) Fpx vs Fpx:Sq^+ NPs; (**** p<0.05) Fpx + verapamil vs Fpx.

[2] = Plasma Fpx concentration (anti-FXa assay) after oral and intravenous administration of aqueous nanoparticulate suspensions; format: in vivo, male Sprague-Dawley rats
Description: The anticoagulant activity of Fpx:Sq^+ aqueous nanoparticulate suspensions of example 4 was evaluated in vivo after oral and intravenous (IV) administration in male Sprague-Dawley rats. The following formulations were administrated orally to the rats (n=4) with the help of feeding needle (Harvard Apparatus, France): NPs at the optimized ratio 1:6 at 25 mg/kg (eq. Fpx) and 50 mg/kg (eq. Fpx), Fpx saline solution at 50 mg/kg and isotonic sodium chloride solution as control. The volume of the administrated solution was 1 mL per 100 g of the rat weight. Blood samples were periodically taken from the jugular vein after anesthesia with isoflurane and the plasma concentration of active Fpx was estimated using an anti-FXa assay. Additionally, a saline solution of Fpx and NPs at the optimized ratio 1:6, both at 200 µg/kg (eq. Fpx) were injected intravenously to the rats (n=3) through the tail vein after anesthesia with isoflurane. Blood samples were periodically taken and the plasma concentration of active Fpx was estimated using an anti-FXa assay. […]

- permeated Fpx concentration ([1]; M-S direction, 120 min, absence of verapamil, donor 2 mg/mL Fpx, 37°C): 4.5 µg/mL
- permeated Fpx concentration ([1]; M-S direction, 180 min, absence of verapamil, donor 2 mg/mL Fpx, 37°C): 4.9 µg/mL
- permeated Fpx concentration ([1]; M-S direction, 180 min, verapamil 0.1 mM in the receptor (serosal) compartment): 12.6 µg/mL
- permeated Fpx concentration ([1]; S-M direction, 180 min, absence of verapamil, donor 2 mg/mL Fpx, 37°C): 7.8 µg/mL
- factor of increase of Fpx fluxes in the presence of verapamil ([1]; net fluxes at 180 min, verapamil in serosal side, vs free Fpx): 4.2
- Cmax ([2]; male, Sprague-Dawley, rat, plasma, 200 ug/kg, intravenous, 200 µg/kg (eq. Fpx), rats n=3, read-out: maximum plasma concentration (Cmax)): 160 ng/mL
- oral absorption (concentration-time profile vs control group) ([2]; oral, saline solution 50 mg/kg): not absorbed
Compound: CO[C@H]1O[C@H](COS(=O)(=O)O)[C@@H](O[C@@H]2O[C@@H](C(=O)O)[C@@H](O[C@H]3O[C@H](COS(=O)(=O)O)[C@@H](O[C@@H]4O[C@H](C(=O)O)[C@@H](O[C@H]5O[C@H](COS(=O)(=O)O)[C@@H](O)[C@H](O)[C@H]5NS(=O)(=O)O)[C@H](O)[C@H]4O)[C@H](OS(=O)(=O)O)[C@H]3NS(=O)(=O)O)[C@H](O)[C@H]2OS(=O)(=O)O)[C@H](O)[C@H]1NS(=O)(=O)O [Fpx, Fondaparinux]
